Key:
hACC1 = target: T1, hACC1 (Homo sapiens, UniProt Q13085); assay: [14C]bicarbonate incorporation assay, overall ACC activity; type: biochemical; details: recombinant hACC1, overall ACC activity
T1 construct: PCR primers were designed for full-length hACC1 and hACC2 using GenBank submissions AY237919 and AJ575592, respectively; His tag (C); made in house; host or cells: baculovirus, Sf9 insect cells
In short: (§1)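 His-tagged full-length hACC1 or hACC2 (residues 1-148 deleted, Met-Gly added), expressed in sf9 cells with biotin and purified, were assayed by [14C]bicarbonate incorporation into acetyl-CoA. Reactions at pH 7.4 with 2 mM acetyl-CoA, 12 mM NaHCO3 and 1% DMSO were started with 2 mM ATP and run 10 min at 37° C. Acid-stable label was counted and IC50 obtained from dose-response fits.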

hACC2 = target: T2, hACC2 (Homo sapiens, UniProt O00763); assay: as above; type: biochemical; details: recombinant hACC2, overall ACC activity
T2 construct: delete amino acids 1-148 and add Met-Gly in front of Lys149 in the final product; His tag (C); made in house; host or cells: baculovirus, Sf9 insect cells
T2 sequence (O00763 149-2458 limits assumed): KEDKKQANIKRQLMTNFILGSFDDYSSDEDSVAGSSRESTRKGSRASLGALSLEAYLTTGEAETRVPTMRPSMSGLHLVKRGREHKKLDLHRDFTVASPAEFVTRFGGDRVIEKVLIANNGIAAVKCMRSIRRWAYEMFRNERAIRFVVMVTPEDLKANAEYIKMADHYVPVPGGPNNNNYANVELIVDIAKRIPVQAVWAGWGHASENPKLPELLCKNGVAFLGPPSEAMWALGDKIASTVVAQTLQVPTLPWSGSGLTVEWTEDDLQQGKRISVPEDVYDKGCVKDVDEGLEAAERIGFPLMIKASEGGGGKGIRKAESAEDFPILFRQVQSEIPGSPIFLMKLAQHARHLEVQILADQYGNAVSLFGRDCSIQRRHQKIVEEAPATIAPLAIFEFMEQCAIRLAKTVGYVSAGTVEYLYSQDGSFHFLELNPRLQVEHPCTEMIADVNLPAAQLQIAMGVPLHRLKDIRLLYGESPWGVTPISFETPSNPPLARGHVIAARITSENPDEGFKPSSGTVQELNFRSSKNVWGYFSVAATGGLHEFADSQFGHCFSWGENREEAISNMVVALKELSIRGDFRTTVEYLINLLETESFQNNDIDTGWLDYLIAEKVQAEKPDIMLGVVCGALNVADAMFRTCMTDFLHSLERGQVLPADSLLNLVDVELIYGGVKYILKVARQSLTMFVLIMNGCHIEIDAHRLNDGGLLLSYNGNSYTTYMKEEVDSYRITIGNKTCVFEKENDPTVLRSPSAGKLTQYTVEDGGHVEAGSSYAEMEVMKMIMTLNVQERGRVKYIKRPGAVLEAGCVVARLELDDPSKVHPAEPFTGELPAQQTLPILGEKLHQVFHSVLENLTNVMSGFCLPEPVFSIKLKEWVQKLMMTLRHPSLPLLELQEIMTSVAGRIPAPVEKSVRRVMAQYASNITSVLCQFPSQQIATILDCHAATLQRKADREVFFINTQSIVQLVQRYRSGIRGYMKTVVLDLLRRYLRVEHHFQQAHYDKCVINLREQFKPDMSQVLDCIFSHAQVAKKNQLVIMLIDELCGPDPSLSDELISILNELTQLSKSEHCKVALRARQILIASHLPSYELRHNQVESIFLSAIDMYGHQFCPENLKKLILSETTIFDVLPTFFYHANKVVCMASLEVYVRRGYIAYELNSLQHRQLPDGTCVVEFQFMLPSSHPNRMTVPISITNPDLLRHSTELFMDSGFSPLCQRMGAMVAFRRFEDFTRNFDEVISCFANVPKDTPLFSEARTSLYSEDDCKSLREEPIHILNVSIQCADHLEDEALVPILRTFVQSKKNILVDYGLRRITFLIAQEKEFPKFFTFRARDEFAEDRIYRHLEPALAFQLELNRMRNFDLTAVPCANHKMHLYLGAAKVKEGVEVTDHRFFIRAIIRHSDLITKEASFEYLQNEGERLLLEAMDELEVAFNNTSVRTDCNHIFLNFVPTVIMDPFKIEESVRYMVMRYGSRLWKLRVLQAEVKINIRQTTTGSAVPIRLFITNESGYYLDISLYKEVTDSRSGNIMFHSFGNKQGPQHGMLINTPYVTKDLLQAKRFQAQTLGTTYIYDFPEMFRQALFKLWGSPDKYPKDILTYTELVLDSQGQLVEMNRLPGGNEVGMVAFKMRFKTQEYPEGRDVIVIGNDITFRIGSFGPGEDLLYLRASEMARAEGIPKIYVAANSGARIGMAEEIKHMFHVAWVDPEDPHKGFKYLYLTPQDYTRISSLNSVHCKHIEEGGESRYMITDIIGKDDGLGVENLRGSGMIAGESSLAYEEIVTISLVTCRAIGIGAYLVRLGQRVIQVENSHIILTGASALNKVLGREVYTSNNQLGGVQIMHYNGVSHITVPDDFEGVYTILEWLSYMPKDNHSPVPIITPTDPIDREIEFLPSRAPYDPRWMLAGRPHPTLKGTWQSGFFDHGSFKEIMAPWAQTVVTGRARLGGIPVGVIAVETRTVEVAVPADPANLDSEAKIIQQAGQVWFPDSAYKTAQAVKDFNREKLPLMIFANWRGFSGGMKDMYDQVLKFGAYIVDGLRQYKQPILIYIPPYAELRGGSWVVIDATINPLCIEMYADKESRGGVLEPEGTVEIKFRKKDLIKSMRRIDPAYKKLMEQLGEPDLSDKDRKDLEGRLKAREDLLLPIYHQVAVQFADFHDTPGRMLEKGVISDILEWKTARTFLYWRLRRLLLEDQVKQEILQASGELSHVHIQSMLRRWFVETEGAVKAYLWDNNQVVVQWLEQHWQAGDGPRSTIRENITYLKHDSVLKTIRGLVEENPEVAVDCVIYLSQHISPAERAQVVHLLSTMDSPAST
In short: as §1

[1] = test system: A2780 human ovary cancer cells; assay: MTT Cell Proliferation Assay; type: cell-based; details: 72 hours, read-out: Percent of Control A2780
In short: (§2)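 Cells seeded and grown 24 h at 37 °C, 5% CO2, then exposed to compound for 72 h. Viability read by MTT reduction (4 h) after overnight lysis/solubilization. Results expressed as percent of control versus compound concentration.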

[2] = test system: HCT-116 human colon cancer cells; assay: MTT Cell Proliferation Assay; type: cell-based; details: 72 hours, read-out: Percent of Control HCT-116
In short: as §2

[3] = test system: MDA-MB-231 human breast cancer cells; assay: MTT Cell Proliferation Assay; type: cell-based; details: 72 hours, read-out: Percent of Control MDA-MB-231
In short: as §2

[4] = test system: PC-3 human prostate cancer cells; assay: MTT Cell Proliferation Assay; type: cell-based; details: 72 hours, read-out: Percent of Control PC-3
In short: as §2

| Compound | IC50 (hACC1) | IC50 (hACC2) | activity at 3.3 µM [1] | activity at 10 µM [1] | activity at 3.3 µM [2] | activity at 10 µM [2] | activity at 3.3 µM [3] | activity at 10 µM [3] | activity at 3.3 µM [4] | activity at 10 µM [4] |
| --- | --- | --- | --- | --- | --- | --- | --- | --- | --- | --- |
| COc1cc(C(=O)N2CCC3(CC2)NC(=O)c2cc(Br)ccc2O3)nc2c(OC)cccc12 [Compound 2, 6-Bromo-1′-[(4,8-dimethoxyquinoline-2-yl)carbonyl]spiro[2H-1,3-benzoxazine-2,4′-piperidine]-4(3H)-one] | 88 nM | 51 nM | – | – | – | – | – | – | – | – |
| COc1ccc2c(c1)C(=O)NC1(CCN(C(=O)c3cc(OC)c4cccc(OC)c4n3)CC1)O2 [Compound 150] | 26 nM | 23 nM | 86.5% | 57.6% | 70.2% | 59.4% | 76.1% | 50.2% | 60.7% | 47.7% |
| COc1cc(C(=O)N2CCC3(CC2)NC(=O)c2cc(OC(C)C)ccc2O3)nc2c(OC)cccc12 [Compound 169] | 7.5 nM | 7.4 nM | 80.5% | 56.5% | 57.2% | 45% | 81.4% | 47.8% | 54.7% | 52.1% |
